The values that follow come from patent US10961202B2, “Bis-benzimidazole compounds and methods of using the same” (THE SCRIPPS RESEARCH INSTITUTE, priority 2017, dated 2021).

The subject of one experiment is r(CUG)12-MBNL1 complex. Briefly: Inhibition of the r(CUG)12-MBNL1 complex measured by TR-FRET. Type of experiment: biochemical. The conditions noted are these: Table M; 80 nM RNA, 60 nM MBNL1-His6.
The test system of experiment [1] is MBNL1 exon 5 inclusion in DM1 myotubes. Description: Myotube splicing rescue assay (MBNL1 exon 5 inclusion). Type of experiment: cell-based, human. The following applies: 48-hour incubation.

`CN(C)CCCOc1ccc2nc(-c3ccc(-c4nc5ccc(OCCCN)cc5[nH]4)cc3)[nH]c2c1` [Compound 205, 3-((2-(4-(6-(3-aminopropoxy)-1H-benzo[d]imidazol-2-yl)phenyl)-1H-benzo[d]imidazol-6-yl)oxy)-N,N-dimethylpropan-1-amine] displayed a 50% inhibitory concentration (IC50) in the experiment on r(CUG)12-MBNL1 complex of 27.3 µM. For the same compound, the “MBNL1 % splicing rescue at 10 μM” value in experiment [1] is given as −48.4%.

`CN(C)CCCCCCOc1ccc2nc(-c3ccc(-c4nc5ccc(OCCCCCCN(C)C)cc5[nH]4)cc3)[nH]c2c1` [Compound 212] registered an IC50 with r(CUG)12-MBNL1 complex of 5.3 µM. Also, the “MBNL1 % splicing rescue at 10 μM” value in experiment [1] is given as 77.0%.

`CN(C)CCc1cn(-c2ccc3nc(-c4ccc(-c5nc6ccc(-n7cc(CCN(C)C)nn7)cc6[nH]5)cc4)[nH]c3c2)nn1` [Compound 221] had a concentration for half-maximal inhibition (IC50) in the experiment with r(CUG)12-MBNL1 complex of 2.53 µM. Besides, in experiment [1], the “MBNL1 % splicing rescue at 10 μM” value was −2.5%.

With `CN(C)CCCOc1ccc2nc(-c3ccc(-c4nc5ccc(OCCCC(=O)OC(C)(C)C)cc5[nH]4)cc3)[nH]c2c1` [Compound 252, tert-butyl 4-((2-(4-(5-(3-(dimethylamino)propoxy)-1H-benzo[d]imidazol-2-yl)phenyl)-1H-benzo[d]imidazol-5-yl)oxy)butanoate], in the experiment with r(CUG)12-MBNL1 complex, the IC50 worked out at 18.9 µM. The “MBNL1 % splicing rescue at 10 μM” value in experiment [1] was 13.0%.

`C#CCOc1cc(-c2nc3ccc(OCCCN(C)C)cc3[nH]2)ccc1-c1nc2ccc(OCCCN(C)C)cc2[nH]1` [Compound 255, 3,3′-((2,2′-(2-(prop-2-yn-1-yloxy)-1,4-phenylene)bis(1H-benzo[d]imidazole-6,2-diyl))bis(oxy))bis(N,N-dimethylpropan-1-amine)] came in with a half-maximal inhibitory concentration (IC50) in the experiment with r(CUG)12-MBNL1 complex of 3.7 µM. The “MBNL1 % splicing rescue at 10 μM” value in experiment [1] amounted to 89.2%.

Compound `CN(C)CCCOc1ccc2nc(-c3ccc(-c4nc5ccc(OCCCN(C)C)cc5[nH]4)c(O)c3)[nH]c2c1` [Compound 256, 2,5-bis(6-(3-(dimethylamino)propoxy)-1H-benzo[d]imidazol-2-yl)phenol] registered a half-inhibitory concentration (IC50) with r(CUG)12-MBNL1 complex of 10.7 µM. Moreover, in experiment [1], the “MBNL1 % splicing rescue at 10 μM” value was 90.6%.

Consider `CN(C)CCCOc1ccc2nc(-c3ccc(-c4nc5ccc(OCCCN(C)C)cc5[nH]4)c(Cl)c3)[nH]c2c1` [Compound 257, 3,3′-((2,2′-(2-chloro-1,4-phenylene)bis(1H-benzo[d]imidazole-6,2-diyl))bis(oxy))bis(N,N-dimethylpropan-1-amine)], for which, in the experiment on r(CUG)12-MBNL1 complex, it took 24.6 µM to reach half-maximal inhibition (IC50). Further, in experiment [1], the “MBNL1 % splicing rescue at 10 μM” value was determined as 92.1%.

`COCCOc1cc(-c2nc3ccc(OCCCN(C)C)cc3[nH]2)ccc1-c1nc2ccc(OCCCN(C)C)cc2[nH]1` [Compound 258, 3,3′-((2,2′-(2-(2-methoxyethoxy)-1,4-phenylene)bis(1H-benzo[d]imidazole-6,2-diyl))bis(oxy))bis(N,N-dimethylpropan-1-amine)] returned an IC50 in the experiment with r(CUG)12-MBNL1 complex of 31 µM. Moreover, the “MBNL1 % splicing rescue at 10 μM” value in experiment [1] is 10.0%.

The compound `CN(C)CCCOc1ccc2nc(-c3ccc(-c4nc5ccc(OCCCN(C)C)cc5[nH]4)c(OCCO)c3)[nH]c2c1` [Compound 259, 2-(2,5-bis(6-(3-(dimethylamino)propoxy)-1H-benzo[d]imidazol-2-yl)phenoxy)ethanol] displayed an IC50 with r(CUG)12-MBNL1 complex of 7.2 µM. Further, in experiment [1], the “MBNL1 % splicing rescue at 10 μM” value was −12.7%.

With `CN(C)CCCOc1ccc2nc(-c3ccc(-c4nc5ccc(C(=O)NCCNC(=N)N)cc5[nH]4)cc3)[nH]c2c1` [Compound 264, 2-(4-(6-(3-(dimethylamino)propoxy)-1H-benzo[d]imidazol-2-yl)phenyl)-N-(2-guanidinoethyl)-1H-benzo[d]imidazole-6-carboxamide], half-maximal inhibition with r(CUG)12-MBNL1 complex (IC50) was put at 6.03 µM. Besides, the “MBNL1 % splicing rescue at 10 μM” value in experiment [1] is −23.5%.

For the compound `CN(C)CCCOc1ccc2nc(-c3ccc(-c4nc5ccc(OCCCN(C)C)cc5[nH]4)c(OCCN=[N+]=[N-])c3)[nH]c2c1` [Compound 265, 3,3′-((2,2′-(2-(2-azidoethoxy)-1,4-phenylene)bis(1H-benzo[d]imidazole-6,2-diyl))bis(oxy))bis(N,N-dimethylpropan-1-amine)], in the experiment on r(CUG)12-MBNL1 complex, half-maximal inhibition (IC50) was put at 16.6 µM. For the same compound, in experiment [1], the “MBNL1 % splicing rescue at 10 μM” value came out at 84.3%.

In the experiment with r(CUG)12-MBNL1 complex, `CN(C)CCCOc1ccc2nc(-c3ccc(-c4nc5ccc(C(=O)OCCN(C)C)cc5[nH]4)cc3)[nH]c2c1` [Compound 266] returned a half-inhibitory concentration (IC50) of 10.7 µM. Besides, in experiment [1], the “MBNL1 % splicing rescue at 10 μM” value is on record as −13.1%.

Consider `CN(C)CCCOc1ccc2nc(-c3ccc(-c4nc5ccc(OCCCN(C)C)cc5[nH]4)c(OCCCl)c3)[nH]c2c1` [Compound 267, 3,3′-(((2-(2-chloroethoxy)-1,4-phenylene)bis(1H-benzo[d]imidazole-2,6-diyl))bis(oxy))bis(N,N-dimethylpropan-1-amine)], for which the IC50 in the experiment with r(CUG)12-MBNL1 complex is 10.9 µM. Also, the “MBNL1 % splicing rescue at 10 μM” value in experiment [1] is reported as 1.8%.

For the compound `CN(C)CCCOc1ccc2nc(-c3ccc(-c4nc5ccc(OCCCN(C)C)cc5[nH]4)c(C#N)c3)[nH]c2c1` [Compound 268, 2,5-bis(6-(3-(dimethylamino)propoxy)-1H-benzo[d]imidazol-2-yl)benzonitrile], in the experiment with r(CUG)12-MBNL1 complex, 9.6 µM corresponded to half-maximal inhibition (IC50). For the same compound, the “MBNL1 % splicing rescue at 10 μM” value in experiment [1] was found to be 73.6%.

For `COc1cc(-c2nc3ccc(C(=O)OCCN(C)C)cc3[nH]2)c(OC)cc1-c1nc2ccc(C(=O)OCCN(C)C)cc2[nH]1` [Compound 269, bis(2-(dimethylamino)ethyl) 2,2′-(2,5-dimethoxy-1,4-phenylene)bis(1H-benzo[d]imidazole-6-carboxylate)], the IC50 in the experiment on r(CUG)12-MBNL1 complex was found to be 3.11 µM. For the same compound, in experiment [1], the “MBNL1 % splicing rescue at 10 μM” value was found to be 55.6%.

With `CN(C)CCOC(=O)c1ccc2nc(-c3ccc(-c4nc5ccc(C(=O)OCCN(C)C)cc5[nH]4)c(F)c3)[nH]c2c1` [Compound 270, bis(2-(dimethylamino)ethyl) 2,2′-(2-fluoro-1,4-phenylene)bis(1H-benzo[d]imidazole-6-carboxylate)], the 50% inhibitory concentration (IC50) in the experiment with r(CUG)12-MBNL1 complex came to 5.81 µM. Moreover, the “MBNL1 % splicing rescue at 10 μM” value in experiment [1] is on record as −19.5%.

In the experiment with r(CUG)12-MBNL1 complex, `CN(C)CCCOc1c(F)cc2nc(-c3ccc(-c4nc5cc(F)c(OCCCN(C)C)c(F)c5[nH]4)cc3)[nH]c2c1F` [Compound 273] returned an IC50 of 6.1 µM. In addition, the “MBNL1 % splicing rescue at 10 μM” value in experiment [1] is on record as −15.3%.

Regarding `CN(C)CCNS(=O)(=O)c1ccc2nc(-c3ccc(-c4nc5ccc(S(=O)(=O)NCCN(C)C)cc5[nH]4)cc3)[nH]c2c1` [Compound 275, 2,2′-(1,4-phenylene)bis(N-(2-(dimethylamino)ethyl)-1H-benzo[d]imidazole-6-sulfonamide)], half-maximal inhibition in the experiment on r(CUG)12-MBNL1 complex (IC50) was put at 24.3 µM. In experiment [1], the “MBNL1 % splicing rescue at 10 μM” value is −6.5%.

Regarding `CN(C)CCCOc1ccc2nc(-c3ccc(-c4nc5ccc(OCCCN(C)C)cc5[nH]4)nc3)[nH]c2c1` [Compound 276, 3,3′-(2,2′-(pyridine-2,5-diyl)bis(3H-benzo[d]imidazole-5,2-diyl))bis(oxy)bis(N,N-dimethylpropan-1-amine)], in the experiment with r(CUG)12-MBNL1 complex, the midpoint of inhibition, the IC50, lay at 9.7 µM. Further, in experiment [1], the “MBNL1 % splicing rescue at 10 μM” value is reported as 63.1%.

In the experiment on r(CUG)12-MBNL1 complex, `CN(C)CCCOc1ccc2nc(-c3cc(O)c(-c4nc5ccc(OCCCN(C)C)cc5[nH]4)cc3O)[nH]c2c1` [Compound 278] gave an IC50 of 38.1 µM. In experiment [1] (1 μM), the “MBNL1 % splicing rescue at 1 μM” value was 79.7%. Besides, in experiment [1], the “MBNL1 % splicing rescue at 10 μM” value is given as 48.2%.

`COc1cc(-c2nc3ccc(OCCCN(C)C)cc3[nH]2)c(OC)cc1-c1nc2ccc(OCCCN(C)C)cc2[nH]1` [Compound 290]: the IC50 with r(CUG)12-MBNL1 complex was 11.1 µM. In experiment [1], the “MBNL1 % splicing rescue at 10 μM” value came out at 97.2%.

For `COc1cc(-c2nc3ccc(OCCCN(C)C)cc3[nH]2)ccc1-c1nc2ccc(OCCCN(C)C)cc2[nH]1` [Compound 293], half-maximal inhibition in the experiment on r(CUG)12-MBNL1 complex (IC50) was put at 18.2 µM. In experiment [1], the “MBNL1 % splicing rescue at 10 μM” value was 71.0%.

In the case of `N=C(N)CCCOc1ccc2nc(-c3ccc(-c4nc5ccc(OCCCC(=N)N)cc5[nH]4)cc3)[nH]c2c1` [Compound 297], half-maximal inhibition with r(CUG)12-MBNL1 complex (IC50) was put at 9.7 µM. Further, the “MBNL1 % splicing rescue at 10 μM” value in experiment [1] is recorded as −4.4%.

`COc1cc(-c2nc3ccc(C(=O)NCCN(C)C)cc3[nH]2)c(OC)cc1-c1nc2cc(OCCCN(C)C)ccc2[nH]1` [Compound 298]: the IC50 in the experiment on r(CUG)12-MBNL1 complex is 23.5 µM. Further, the “MBNL1 % splicing rescue at 10 μM” value in experiment [1] is −41.8%.

`COc1cc(-c2nc3ccc(C(=O)NCCCN(C)C)cc3[nH]2)c(OC)cc1-c1nc2cc(OCCCN(C)C)ccc2[nH]1` [Compound 299] registered an IC50 in the experiment on r(CUG)12-MBNL1 complex of 10.3 µM. The “MBNL1 % splicing rescue at 10 μM” value in experiment [1] is listed as −34.9%.

For `CN(C)CCCOc1cc2[nH]c(-c3ccc(-c4nc5cc(F)c(OCCCN(C)C)cc5[nH]4)c(F)c3)nc2cc1F` [Compound 301, (3-[[2-(4-[6-[3-(dimethylamino)propoxy]-5-fluoro-1H-1,3-benzodiazol-2-yl]-3-fluorophenyl)-5-fluoro-1H-1,3-benzodiazol-6-yl]oxy]propyl)dimethylamine], the half-inhibitory concentration (IC50) in the experiment on r(CUG)12-MBNL1 complex is 5.3 µM. For the same compound, the “MBNL1 % splicing rescue at 10 μM” value in experiment [1] was 19.4%.

Regarding `COc1cc(-c2nc3ccc(SCCCN(C)C)cc3[nH]2)c(OC)cc1-c1nc2cc(SCCCN(C)C)ccc2[nH]1` [Compound 302, 3-((2-(4-(6-((3-(dimethylamino)propyl)thio)-1H-benzo[d]imidazol-2-yl)-2,5-dimethoxyphenyl)-1H-benzo[d]imidazol-5-yl)thio)-N,N-dimethylpropan-1-amine], the IC50 in the experiment with r(CUG)12-MBNL1 complex was 28 µM. The “MBNL1 % splicing rescue at 10 μM” value in experiment [1] was 32.3%.

The compound `CN(C)CCCOc1cc2nc(-c3ccc(-c4nc5cc(Cl)c(OCCCN(C)C)cc5[nH]4)cc3)[nH]c2cc1Cl` [Compound 304, (3-[[6-chloro-2-(4-[5-chloro-6-[3-(dimethylamino)propoxy]-1H-1,3-benzodiazol-2-yl]phenyl)-1H-1,3-benzodiazol-5-yl]oxy]propyl)dimethylamine] displayed a concentration for half-maximal inhibition (IC50) with r(CUG)12-MBNL1 complex of 5.8 µM. For the same compound, in experiment [1], the “MBNL1 % splicing rescue at 10 μM” value was −42.3%.

In the experiment on r(CUG)12-MBNL1 complex, `CN(C)CCCOc1ccc2nc(-c3ccc(-c4nc5ccc(OCCCN(C)C)cc5[nH]4)c4c3OCO4)[nH]c2c1` [Compound 305] gave an IC50 of 7.6 µM. In addition, the “MBNL1 % splicing rescue at 10 μM” value in experiment [1] is on record as 58.8%.

In the experiment on r(CUG)12-MBNL1 complex, `CN(C)CCCSc1ccc2nc(-c3ccc(-c4nc5ccc(SCCCN(C)C)cc5[nH]4)c4c3OCO4)[nH]c2c1` [Compound 306] had an IC50 of 12.1 µM. The “MBNL1 % splicing rescue at 10 μM” value in experiment [1] is reported as 11.7%.
